Test results published in EP2892896B1 (Bristol-Myers Squibb Company, priority 2012, dated 2014).

Target: T1, human melanin concentrating hormone receptor (MCHR1) (Homo sapiens, UniProt Q99705, A5T/E4Q)
T1 construct: expressed in transfected cells; host or cells: HEK-293 (stably transfected), membranes
Experiment: Radioligand binding assay for assessment of MCHR1 activity
Settings: membranes from HEK-293 cells expressing a mutated (E4Q, A5T) hMCHR1 receptor; competition with 0.06 - 0.1 nM [Phe13, [125I]Tyr19]-MCH; 90 min
Procedure: Radioligand Binding Assay for Assessment of MCHR1 Activity
An in vitro binding assay was used to determine the compound Ki value or ability to antagonize binding of a peptide agonist to the human melanin concentrating hormone receptor (MCHR1). […] Binding experiments were carried out with 0.5-1.0 µg of membrane protein incubated in a total of 0.2 mL in 25 mM HEPES (pH 7.4) with 10 mM MgCl2, 2 mM EGTA, and 0.1% BSA (Binding Buffer) for 90 min. For competition binding assays, reactions were carried out in the presence of with 0.06 - 0.1 nM [Phe^13, [^125I]Tyr^19]-MCH and increasing concentrations of unlabeled test molecules. […] Filters were dried, 0.05 mL MicroScint 20 was added to each well and radioactivity was subsequently quantified by scintillation counting on a TOPCOUNT® microplate scintillation counter (Packard). Inhibitory constants were determined by nonlinear least squares analysis using a four parameter logistic equation.

T1 sequence (Q99705 whole entry E4Q/A5T): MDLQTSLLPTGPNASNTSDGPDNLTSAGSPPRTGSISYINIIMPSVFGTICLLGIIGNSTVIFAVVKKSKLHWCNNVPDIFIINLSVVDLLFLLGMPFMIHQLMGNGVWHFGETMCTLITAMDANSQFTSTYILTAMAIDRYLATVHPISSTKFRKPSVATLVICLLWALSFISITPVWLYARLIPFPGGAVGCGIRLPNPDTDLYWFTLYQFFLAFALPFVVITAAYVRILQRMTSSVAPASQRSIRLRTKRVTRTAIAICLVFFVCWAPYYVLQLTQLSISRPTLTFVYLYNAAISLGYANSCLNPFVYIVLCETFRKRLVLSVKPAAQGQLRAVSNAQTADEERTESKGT

| Structure (SMILES) | Ki |
| --- | --- |
| COc1cc(N2CCC(Oc3ccc(C4CC4)cc3)C2=O)ccc1OCCS(=O)(=O)CC(C)(C)O (stereo not shown) [Example 74] | 64 nM |
| Cc1cc(N2CCC(Oc3ccc(C(F)(F)F)cc3)C2=O)ccc1OCC(C)(C)O (stereo not shown) [Example 76] | 26 nM |
| Cc1cc(N2CCC(Oc3ccc(OC(F)(F)F)cc3)C2=O)ccc1OCC(C)(C)O (stereo not shown) [Example 77] | 15 nM |
| Cc1cc(N2CC[C@H](Oc3ccc(OC(F)(F)F)cc3)C2=O)ccc1OCC(C)(C)O [Example 78] | 6000 nM |
| Cc1cc(N2CC[C@@H](Oc3ccc(OC(F)(F)F)cc3)C2=O)ccc1OCC(C)(C)O [Example 79] | 11 nM |
| Cc1cc(N2CCC(Oc3ccc(-c4ccccc4)cc3)C2=O)ccc1OCC(C)(C)O (stereo not shown) [Example 80] | 4 nM |
| Cc1cc(N2CCC(Oc3ccc(CC(F)(F)F)cc3)C2=O)ccc1OCC(C)(C)O (stereo not shown) [Example 81] | 22 nM |
| Cc1cc(N2CCC(Oc3ccc(C4CC4)cc3)C2=O)ccc1OCC(C)(C)O (stereo not shown) [Example 82] | 11 nM |
| Cc1cc(N2CC[C@H](Oc3ccc(C4CC4)cc3)C2=O)ccc1OCC(C)(C)O [Example 83] | 168 nM |
| Cc1cc(N2CC[C@@H](Oc3ccc(C4CC4)cc3)C2=O)ccc1OCC(C)(C)O [Example 84] | 5 nM |
| Cc1cc(N2CCC(Oc3ccc(I)cc3)C2=O)ccc1OCC(C)(C)O (stereo not shown) [Example 85] | 22 nM |
| Cc1cc(N2CCC(Oc3ccc(C(F)(F)F)cn3)C2=O)ccc1OCC(C)(C)O (stereo not shown) [Example 86] | 5000 nM |
| Cc1cc(N2CCC(Oc3ccc(Br)nc3)C2=O)ccc1OCC(C)(C)O (stereo not shown) [Example 87] | 7000 nM |
| Cc1cc(N2CCC(Oc3ccc(-c4ccccc4)nc3)C2=O)ccc1OCC(C)(C)O (stereo not shown) [Example 88] | 45 nM |
| Cc1cc(N2CCC(Oc3ccc(-c4ccncc4)cc3)C2=O)ccc1OCC(C)(C)O (stereo not shown) [Example 89] | 37 nM |
| Cc1cc(N2CCC(Oc3ccc(-c4ccccc4)cc3)C2=O)ccc1OCC1(O)CC(F)(F)C1 (stereo not shown) [Example 90] | 10 nM |
| CCS(=O)(=O)C[C@@H](O)COc1ccc(N2CCC(Oc3ccc(C4CC4)cc3)C2=O)cc1C (stereo partly shown) [Example 93] | 57 nM |
| CCS(=O)(=O)C[C@@H](O)COc1ccc(N2CCC(Oc3ccc(OC(F)(F)F)cc3)C2=O)cc1C (stereo partly shown) [Example 94] | 714 nM |
| Cc1cc(N2CCC(Oc3ccc(C4CC4)cc3)C2=O)ccc1OC[C@H](O)CS(C)(=O)=O (stereo partly shown) [Example 97] | 79 nM |
| Cc1cc(N2CCC(Oc3ccc(C(F)(F)F)cc3)C2=O)ccc1OC[C@H](O)CS(C)(=O)=O (stereo partly shown) [Example 98] | 1430 nM |
| Cc1cc(N2CCC(Oc3ccc(C4CC4)cc3)C2=O)ccc1OC[C@@H](O)CS(C)(=O)=O (stereo partly shown) [Example 100] | 42 nM |
| Cc1cc(N2CCC(Oc3ccc(-c4ccccc4)cc3)C2=O)ccc1OCCS(C)(=O)=O (stereo not shown) [Example 104] | 1 nM |
| Cc1cc(N2CC=C(Oc3ccc(OC(F)(F)F)cc3)C2=O)ccc1OCC(C)(C)O [Example 117] | 25 nM |
| Cc1cc(N2CC=C(Oc3ccc(C4CC4)cc3)C2=O)ccc1OCC(C)(C)O [Example 118] | 9 nM |
| COc1cc(N2CC=C(Oc3ccc(C4CC4)cc3)C2=O)ccc1OCC(C)(O)CO (stereo not shown) [Example 119] | 4 nM |
| COc1cc(N2CC=C(Oc3ccc(C4CC4)cc3)C2=O)ccc1OC[C@H](O)C1CC1 [Example 121] | 2 nM |
| COc1cc(N2CC=C(Oc3ccc(-c4ccccc4)cc3)C2=O)ccc1OCC(C)(C)O [Example 122] | 3 nM |

Next, values leading:

| Ki | Structure (SMILES) |
| --- | --- |
| 6 nM | COc1cc(N2CCC(Oc3ccc(-c4ccccc4F)cc3)C2=O)ccc1OCCS(C)(=O)=O (stereo not shown) [Example 67, 3-(2'-Fluorobiphenyl-4-yloxy)-1-(3-methoxy-4-(2-(methylsulfonyl)ethoxy)phenyl)pyrrolidin-2-one] |
| 5 nM | COc1cc(N2CCC(Oc3ccc(-c4cccc(F)c4)cc3)C2=O)ccc1OCCS(C)(=O)=O (stereo not shown) [Example 68] |
| 7 nM | COc1cc(N2CCC(Oc3ccc(C4CC4)cc3)C2=O)ccc1OCCS(C)(=O)=O (stereo not shown) [Example 70] |
| 3 nM | COc1cc(N2CC[C@@H](Oc3ccc(C4CC4)cc3)C2=O)ccc1OCCS(C)(=O)=O [Example 71, (R)-3-(4-Cyclopropylphenoxy)-1-(3-methoxy-4-(2-(methylsulfonyl)ethoxy)phenyl)pyrrolidin-2-one] |
| 7 nM | CS(=O)(=O)CCOc1ccc(N2CCC(Oc3ccc(-c4ccccc4)cc3)C2=O)cc1OCCF (stereo not shown) [Example 72] |
| 87 nM | COc1cc(N2CC[C@H](Oc3ccc(C4CC4)cc3)C2=O)ccc1OCCS(C)(=O)=O [Example 73] |
| 13 nM | COc1cc(N2CCC(Oc3ccc(-c4ccccc4)cc3)C2=O)ccc1OCCS(=O)(=O)CC(C)(C)O (stereo not shown) [Example 75] |
| 7 nM | CCS(=O)(=O)C[C@@H](O)COc1ccc(N2CCC(Oc3ccc(-c4ccccc4)cc3)C2=O)cc1C (stereo partly shown) [Example 91] |
| 22 nM | CCS(=O)(=O)C[C@@H](O)COc1ccc(N2CCC(Oc3ccc(-c4ccc(F)cc4)cc3)C2=O)cc1C (stereo partly shown) [Example 92] |
| 15 nM | Cc1cc(N2CCC(Oc3ccc(-c4ccccc4)cc3)C2=O)ccc1OC[C@H](O)CS(C)(=O)=O (stereo partly shown) [Example 95] |
| 22 nM | Cc1cc(N2CCC(Oc3ccc(-c4ccc(F)cc4)cc3)C2=O)ccc1OC[C@H](O)CS(C)(=O)=O (stereo partly shown) [Example 96] |
| 19 nM | Cc1cc(N2CCC(Oc3ccc(-c4ccc(F)cc4)cc3)C2=O)ccc1OC[C@@H](O)CS(C)(=O)=O (stereo partly shown) [Example 99] |
| 6 nM | Cc1cc(N2CCC(Oc3ccc(-c4ccccc4)cc3)C2=O)ccc1OCC[S+](C)[O-] (stereo not shown) [Example 102] |
| 40 nM | Cc1cc(N2CCC(Oc3ccc(OC(F)(F)F)cc3)C2=O)ccc1OCCS(C)(=O)=O (stereo not shown) [Example 103] |
| 5 nM | Cc1cc(N2CCC(Oc3ccc(-c4cccc(F)c4)cc3)C2=O)ccc1OCCS(C)(=O)=O (stereo not shown) [Example 108] |
| 6 nM | Cc1cc(N2CCC(Oc3ccc(-c4ccc(F)cc4)cc3)C2=O)ccc1OCCS(C)(=O)=O (stereo not shown) [Example 109] |
| 3 nM | Cc1cc(N2CC[C@@H](Oc3ccc(-c4ccc(F)cc4)cc3)C2=O)ccc1OCCS(C)(=O)=O [Example 110] |
| 1740 nM | Cc1cc(N2CC[C@H](Oc3ccc(-c4ccc(F)cc4)cc3)C2=O)ccc1OCCS(C)(=O)=O [Example 111] |
| 31 nM | Cc1cc(N2CCC(Oc3ccc(C(F)(F)F)cc3)C2=O)ccc1OCCS(C)(=O)=O (stereo not shown) [Example 112] |
